Reference: patent US20250255945A1, “CLICK CHEMISTRY HLA POLYPEPTIDES” (IMMUNEO Therapeutics GmbH, priority 2024, published 2025)

Experiments:
[1] = test system: peripheral blood mononuclear cells (PBMCs); assay: IFN-γ ELISPOT assay (ex vivo) with subject PBMCs; assay type: cell-based, human; settings: for Elispot [nspots/pM]: Table 6, further HTAPPs, HTAPP-DACPs and reference sequences; for response rate in ELIspot on addition of a DACP: Example 3 subject PBMCs, compared to the HTAPP without DACP
Protocol: IFNγ ELISpot analysis (for protocol see A. Lalvani, R. Brookes, S. Hambleton, W. J. Britton, A. V. S. Hill, A. J. McMichael, J Exp Med 1997; 186 (6): 859-865) was performed ex vivo (without further in vitro culturing for expansion) using PBMCs depleted of CD4+ and enriched for CD8+ T cells (CD8+ effectors), or depleted of CD8+ and enriched for CD4+ T cells (CD4+ effectors). Tests were performed in duplicate and with a positive and negative control, Multiscreen filter plates (Merck Millipore) pre-coated with IFNγ-specific antibodies (ELISpotPro kit, Mabtech). 267.000 Cells were used per plate. Plates were scanned using an AID Classic Robot ELISPOT Reader and analyzed by AID ELISPOT 7.0 software (AID Autoimmun Diagnostika). Antigen Peptides (except negative and positive control group) were done in duplicates, spot counts were taken as mean values of each duplicate.
The immunogenicity of each of the six peptides was analyzed by IFN-γ secretion by subject peripheral blood mononuclear cells (PBMCs) using ELIspot assay. […]
The immunogenicity of each peptide was assessed in peripheral blood mononuclear cells (PBMCs) from patients and using the IFN-γ-ELISPOT assay. ELISPOT results were considered positive if the number of spots was at least 2-fold higher than the negative control (medium) and at least 50 spots were detected. […] We also tested the effect of delivery aiding peptides (DACP-1) and peptide extension by overlapping tandemization and tandemization on the immunogenicity of the epitopes.

[2] = test system: prostate cancer with bone metastases; assay: Case study Example 4: immunization of a subject with prostate cancer and bone metastases with PrCa-PC1/PrCa-PC2; assay type: in vivo, human; settings: after 70 days
Protocol: • Subject: A person • Date of Admission: Oct. 4, 2022 • Complaints: Urinary urgency, interrupted urination, nocturia, and erectile dysfunction
• PSA Level: 99.77 ng/mL (See FIG. 9A) • MRI Examination: Moderately enlarged prostate with extensive, organ-crossing, and infiltrating prostate cancer on the left side. • PSMA-PET Examination: Involvement of the middle gland and apex on the left periphery, infiltrating the left seminal vesicles. No PSMA positive lymph node metastases found, but sclerotic bone metastases reported (See FIG. 9B). • First Biopsies: Taken from bone metastases in the area of the lateral mass of the left sacrum. Pathological assessment confirmed malignant prostatic origin.
(§1) • Step (a): the pharmaceutical composition comprising the 12 synthetic HLA tumor antigen polypeptides and XS15 as adjuvant were synthesized as chemical peptides, • Step (b): the 12 HLA tumor antigen polypeptides were mixed in 25% DMSO/H2O application solution and divided multiple vial units of 1 nil each, Dose per HLA tumor antigen polypeptide: 300 μg
as §1, with “7” for “12”, “ml” for “nil”, “μg […]” for “μg”

Row | Molecule | Elispot [nspots/pM] [1] | response rate in ELIspot on addition of a DACP [1] | other results
1 | 83 (QSYPGSASLAAYSGMPRISKLRQIKIWFQNRRMKWKK) [compound 83] | 367,5 nspots/pM | – | –
2 | 84 (PPSNATAETQPIPQKAAYLEAIFLRDWDSLYSHDLDTSADS) [compound 84] | 197,5 nspots/pM | – | –
3 | CC(O)(CS(=O)(=O)c1ccc(F)cc1)C(=O)Nc1ccc(C#N)c(C(F)(F)F)c1 (stereo not drawn) [Bicalutamide] | – | – | tolerability (discontinuation) [2]: side effects
4 | KKIRKPRTIYSSLQLQAAAYGIYDALFDIESKVDPSK [SEQ-ID-No.: 8] | – | – | increase in Elispot count ([1]; tandem peptide in relation to the more immunogenic single HTAP (SEQ-ID-No.: 77 / 78)): more than 237%
5 | KLVVVGAVGVGKSALTIRQIKIWFQNRRMKWKK [SEQ-ID-No.: 18] | – | increase in the response rate | –
6 | LQEFRRFQDPGRIVAIVRQIKIWFQNRRMKWKK [SEQ-ID-No.: 20] | – | increase in the response rate | –
